From patent US20150359668A1, “LIGHT DELIVERY DEVICE AND RELATED COMPOSITIONS, METHODS AND SYSTEMS” (CALIFORNIA INSTITUTE OF TECHNOLOGY, priority 2011, published 2015)
Several values for one entry are separate records, joined by “and”; a condition that tells them apart may be missing. Equal values may be shown once. Read-outs that look alike come from different tables or passages of the source.

Assays:
[1] = reaction with singlet oxygen; cited from earlier work
cornea [2] = experiment: drug diffusion into the cornea of intact eyes (extraction assay, diffusion model fit); conditions: for diffusivity, D / partition coefficient, k: from DPBS
Description: Siena for Medical Science supplied porcine eyes from 3-4 month old swine. Eyes were stored in ocular balanced saline solution on ice until use within 48 hours post mortem. […] The epithelial cell layer was removed by scraping with a scalpel. […] The drug solution containing the eye was gently agitated using a rocker for a specified “drug contact time” (tc,cornea ranging from 0 to 4 hours). After the drug contact time, the eye was removed from the drug solution, and excess solution on the cornea was dabbed away with a Kimwipe. The eye was dissected using a scalpel blade and a pair of scissors to cut around the corneoscleral limbus to separate out the cornea. The tissue section was placed onto a trephine punch to cut out a 9.5-mm diameter corneal cross-section.
(§1) Quantitative assay of the amount of drug delivered—Experiments were performed for five drug contact times (four samples each): for the cornea, tc,cornea=0.25, 0.5, 1, 2, and 4 hrs, and for the sclera, tc,sclera=0.5, 2, 4, 7.5, and 120 hrs. Each experiment was repeated four times. For each experiment, the 9.5-mm diameter tissue cross-section obtained as described above was placed into a 50 mL centrifuge tube and immersed in 50 mL of extractant (doubled-distilled water for cornea or DPBS for sclera) then placed on a rocker to extract the drug molecules (FIG. 40). […] After a first extraction time te,1 of 8 hours, the tissue specimen was then transferred into another 50 mL of fresh extractant and the extract was retained for analysis.
(§2) The concentration of the drug in the extract was determined using fluorimetry. […] The fluorescence of each extract was measured and concentration was determined based on calibration curves prepared for each compound using a series of solutions with known concentrations. The extraction process was repeated using successively longer extraction times until there was no detectable fluorescence in the supernatant.
(§3) Porcine eyes closely resemble a sphere with diameter ˜25 mm. The cornea and sclera are the targeted tissues and both have thicknesses that are on the order of 1 mm. Since these tissue thicknesses are less than a tenth of the diameter of the eye, they are modeled as semi-infinite slabs. Each tissue is approximated as a uniform material. Fick's diffusion equation is given by
(§4) where C(z,t) is the drug concentration inside the tissue, t is the time since the exterior surface of the tissue was placed in contact with the drug solution, z is the distance into the tissue from its exterior surface, and D is the diffusion coefficient. […] For short contact times, the concentration falls to zero before the profile reaches the endothelium. For longer contact times, the boundary condition that the concentration falls to zero far into the system is still used as a first approximation (neglecting the change in material properties at the endothelium and neglects different transport processes in the aqueous or vitreous).
(§5) where area represents the cross-sectional area of the tissue sample and L is the thickness of the tissue sample. At long drug contact time, the predicted concentration changes very slowly and approaches a value governed by the partition coefficient.
(§6) with i being the individual data point and N being the total data points used for the fit. Data fitting was performed by writing a program in MATLAB software.

sclera [3] = experiment: drug diffusion into the sclera of intact eyes (extraction assay, diffusion model fit); conditions: for diffusivity, D / partition coefficient, k: from DPBS
Text: Orbital tissues were removed with scissors to expose the sclera. […] After the contact time, the eye was removed from the drug solution, and excess solution on the sclera was dabbed away with a Kimwipe. The eye was dissected using a scalpel blade and a pair of scissors to obtain a posterior scleral section on the temporal side near the optic nerve. The tissue section was placed onto a trephine punch to cut out a 9.5-mm diameter cross-section.
as §1, §2, §3, §4, §5, §6

cornea [4] = conditions: sodium azide added to the riboflavin treatment solution; cited from earlier work
[5] = physiological pH; cited from earlier work
keratocytes = conditions: human, in vivo; cited from earlier work
posterior globe = conditions: rabbit, in vivo; cited from earlier work
collagen gel = collagen gel photorheology: storage modulus during photo-activated cross-linking; conditions: for cross-linking rate as % of the rate without singlet oxygen quenchers: in air; for modulus change during the last 10 minutes, no irradiation / ΔG′ over the 30-minute period without irradiation: 0.02% eosin Y or 0.1% riboflavin, 0 mW/cm^2; for modulus change during the 10 minutes after cessation of irradiation / change of storage modulus ΔG′ over the 30-minute irradiation: 0.02% eosin Y, 0.1% riboflavin; for modulus change during the 10 minutes after cessation of irradiation: 6 mW/cm^2, 3 mW/cm^2; for change of storage modulus ΔG′ over the 30-minute irradiation: 6 mW/cm^2 at 530±15 nm, 3 mW/cm^2 at 370±12 nm
cornea [6] = experiment: model of photodynamic collagen cross-linking profile in the cornea
Text: Design of experiments—The collagen gel photorheological technique discussed in Examples 29-31 was used to gather collagen cross-linking rate data in order to model the extent and distribution of cross-link formation in the tissue. Collagen gel samples have uniform drug concentration profiles based on the preparation technique developed Examples 29-31. The protocols for collagen gel preparation and photorheological measurement are described in the Methods Section of Example 29-31. The pairs of drug concentrations and collagen gel thicknesses were selected such that the intensity profile is approximately uniform throughout the sample. Based on light intensity calculations, this is achieved when the ratio of light penetration depth over sample thickness is 1.2. The light intensity profile in the sample is given by:
Design of the model—Photodynamic collagen cross-linking depends on both the local photosensitizer concentration and the light intensity which are functions of treatment parameters: drug concentration, contact time (duration the drug is in contact with the tissue), delay time (period between end of contact time and beginning of irradiation), and irradiation time (FIGS. 46A-46C). […] The concentration profile can be calculated using Fick's diffusion equation. The light intensity also varies along the tissue as determined by Beer's law. […]

cell viability = conditions: cited from earlier work
guinea pig eyes = experiment: guinea pig form-deprivation myopia and normal ocular growth after subconjunctival treatment; conditions: Set A, eyes enucleated immediately after treatment
sclera [7] = conditions: subconjunctival delivery; cited from earlier work
sclera [8] = conditions: cited from earlier work
cornea [9] = conditions: fluorescein value used for riboflavin in earlier studies; cited from earlier work
[10] = in the absence of oxygen (in argon), 30-minute irradiation
[11] = in the presence of oxygen (in air), 30-minute irradiation, 0.05% riboflavin 370 nm or 0.02% eosin Y 530 nm

## N[C@@H](Cc1c[nH]cn1)C(=O)O [Histidine]
[1]
  k1O2 × 10^−7 M^−1s^−1: 3.2-3.4 × 10^−7 M^−1s^−1

## N[C@@H](Cc1ccc(O)cc1)C(=O)O [Tyrosine]
[1]
  k1O2 × 10^−7 M^−1s^−1: 0.8 × 10^−7 M^−1s^−1

## N[C@@H](Cc1c[nH]c2ccccc12)C(=O)O [Tryptophan]
[1]
  k1O2 × 10^−7 M^−1s^−1: 1.3-3 × 10^−7 M^−1s^−1

## riboflavin-5′-monophosphate [reference compound]
Cornea [2]
  diffusion coefficient without the binding effect, Dab: 134 μm^2/s
  drug contact time at which delivered amount levels off: 2 h
  drug in second extract, % of the first extract: 1.6-2.5%
Sclera [3]
  diffusion coefficient without the binding effect, Dab: 41 μm^2/s
  drug in 3rd extract relative to the first extract: 1-3%
  drug in 4th extract relative to the first extract: ≤ 1%
  drug in second extract, % of the first extract: 3-6%
  time for the concentration to level off: approximately 7.5 hours
Cornea [4]
  decrease of cross-linking efficacy (destructive tension of corneal strips): 76%
[5]
  ionization in solution: negatively ionized
keratocytes
  anterior stromal depth in which almost all keratocytes undergo apoptosis: 300-350 μm
  time to full recovery of the keratocyte population: 6-12 months
Posterior globe
  side-effects in the posterior globe: almost complete loss of the photoreceptors, the outer nuclear layer and the retinal pigment epithelium (RPE)
Collagen gel; 10 mM sodium azide
  cross-linking rate as % of the rate without singlet oxygen quenchers: 12±20%
Collagen gel
  modulus change during the last 10 minutes, no irradiation: 32±36 Pa
  ΔG′ over the 30-minute period without irradiation: 72±136 Pa
  modulus change during the 10 minutes after cessation of irradiation: 70±19 Pa
  change of storage modulus ΔG′ over the 30-minute irradiation: 819±85 Pa
Collagen gel; 20 mM ascorbic acid
  cross-linking rate as % of the rate without singlet oxygen quenchers: −32±11%
Collagen gel; 100 mM sodium azide
  cross-linking rate as % of the rate without singlet oxygen quenchers: −26±23%
Collagen gel; 0.12% riboflavin concentration, by interpolation
  cross-linking rate as % of the optimal rate (0.05% riboflavin): approximately 78%
Collagen gel; in argon
  cross-linking in the absence of oxygen: no cross-linking occurred
Collagen gel; [10]
  rate of change in storage modulus, Ġ′ (decreased by): 4.8±2.3 Pa/min
Collagen gel; [11]
  rate of change in storage modulus, Ġ′ (increased by): 28.0±4.7 Pa/min

## O=C([O-])c1ccccc1-c1c2cc(Br)c(=O)c(Br)c-2oc2c(Br)c([O-])c(Br)cc12.[Na+].[Na+] [Eosin Y, eosin Y]
Cornea [2]; cornea
  drug contact time at which delivered amount levels off: 2 h
  diffusivity, D: 62 μm^2/s and 62 ± 22 μm^2/s
  partition coefficient, k: 4.3±0.7 and 4.3
Cornea [2]; cornea, listed as eosin Y
  diffusivity, D: 62 μm^2/s
  partition coefficient, k: 4.3
Cornea [2]; cornea, Dab=kD
  diffusion coefficient without the binding effect, Dab: 267 μm^2/s
Cornea [2]; through porcine cornea
  calculated permeability: 0.31 μm/s
Sclera [3]; sclera
  permeability: 0.099 μm/s
  time for the concentration to level off: approximately 30 hours
  diffusivity, D: 6.2 ± 1.7 μm^2/s and 6.2 μm^2/s
  partition coefficient, k: 13.0±1.1 and 13.0
Sclera [3]; sclera, 2 hours contact time
  drug in second extract, % of the first extract: approximately 20%
Sclera [3]; sclera, listed as eosin Y
  diffusivity, D: 6.2 μm^2/s
  partition coefficient, k: 13
Sclera [3]; sclera, Dab=kD
  diffusion coefficient without the binding effect, Dab: 81 μm^2/s
Cornea [6]
  characteristic time to penetrate the entire cornea, L^2/(4*D): ~15 min
[5]
  ionization in solution: negatively ionized
Cell viability
  concentration with excellent cell viability (up to): up to 20 mM
Collagen gel; 10 mM ascorbic acid
  cross-linking rate as % of the rate without singlet oxygen quenchers: 43±23%
Collagen gel
  modulus change during the last 10 minutes, no irradiation: 59±34 Pa
  ΔG′ over the 30-minute period without irradiation: −23±76 Pa
  modulus change during the 10 minutes after cessation of irradiation: 61±136 Pa
  change of storage modulus ΔG′ over the 30-minute irradiation: 793±118 Pa
Collagen gel; 20 mM ascorbic acid
  cross-linking rate as % of the rate without singlet oxygen quenchers: 23±10%
Collagen gel; 100 mM ascorbic acid
  cross-linking rate as % of the rate without singlet oxygen quenchers: −7±6%
Collagen gel; 100 mM sodium azide
  cross-linking rate as % of the rate without singlet oxygen quenchers: 34±8%
Collagen gel; argon vs air
  cross-linking rate in the absence of oxygen (reduced to): 12%
Collagen gel; [10]
  rate of change in storage modulus, Ġ′ (increased by): 3.4±2.3 Pa/min
Collagen gel; [11]
  rate of change in storage modulus, Ġ′ (increased by): 28.4±5.1 Pa/min
Guinea pig eyes
  distribution in the sclera after subconjunctival injection: pink staining from Eosin Y over the entire sclera

## N[C@@H](CS)C(=O)O [Cystei e, Cysteine]
[1]
  k1O2 × 10^−7 M^−1s^−1: 0.89 × 10^−7 M^−1s^−1

## CO[C@@]12[C@H](COC(N)=O)C3=C(C(=O)C(C)=C(N)C3=O)N1C[C@@H]1N[C@@H]12 [mitomycin-C]
Sclera [7]
  fraction of drug present on the surface of sponges able to diffuse into the sclera: ~5%

## sulforhodamine
Sclera [8]
  partition coefficient in the sclera: 13.6

## O=C1OC2(c3ccc(O)cc3Oc3cc(O)ccc32)c2ccccc21 [fluorescein]
Cornea [9]
  diffusion coefficient, D: 65 μm^2/s

## CSCC[C@H](N)C(=O)O [Methionine]
[1]
  k1O2 × 10^−7 M^−1s^−1: 1.6 × 10^−7 M^−1s^−1
